Test results: US7691582B2, “Methods of secretory vimentin detection and modulation” (The Regents of the University of Michigan, priority 2002, dated 2010)
“Also recorded” adds a separate entry of the source.

Legend:
Assay type in all cases: cell-based, human
[1] = tested on: secretion of vimentin from MDM; test: Vimentin secretion by MDM, Western blot of supernatants; settings: for secretion of vimentin from the mature MDM: eleven day MDM, 40% human serum, monensin 2 or 4 μg ml−1 or tunicamycin 4 μg ml−1, 12 h, FIG. 2h; for vimentin secretion (vimentin in the supernatant): MDM treated 2 h with inhibitor (GÖ 6983 250 nM; SB 203580 100 μM), FIGS. 3c, 4a, 4b
Method: Monocyte-derived macrophages (MDMs) were prepared as previously described^40. Briefly, heparinized venous blood was collected upon consent from healthy volunteers, and peripheral blood mononuclear cells (PBMC) were separated by Ficoll-Hypaque (Pharmacia Biotech AB, Uppsala, Sweden) density gradient centrifugation. MDM were purified by adherence to plastic for 2 hat […] at a concentration of 5×10^5 ml^−1. Adherent cells were consistently >90% monocytes as described^40. Adherence-purified human monocytes were cultured in X-vivo medium supplemented with 40% human AB serum (Bio-Whittaker, Walkersville, Md.) and 100 units of penicillin and 50 units of streptomycin per ml^12.
(§1) Cells were maintained for 12-48 h in serum-free medium. When applicable, during the incubation in serum-free media cells were treated for 12 h with 10-500 ng ml^−1 IL-10, 0.5-5 ng ml^−1 TNF-α, 4 μg ml^−1 tunicamycin, E-64 [100 µM] (Sigma), or 2 or 4 μg ml^−1 monensin (Pharmingen). Alternatively, cells were treated for 2 h with GÖ 6983 [250 nM], SB 203580 [100 μM], or OA [100 nM] (Calbiochem) followed by 12 h incubation in serum-free media or treatment with TNF-α. The viability of the cells up to 48 h was almost 100% as measured by MTT assay (Boehringer Mannheim, Indianapolis, Ind.) and LDH release as previously described^12. Supernatants were collected and centrifuged for 20 min at 1500 RPM to remove cell debris and concentrated by a centrifugal filter device (Millipore) in the presence of a protease inhibitor cocktail (Boehringer Mannheim, Indianapolis, Ind.) and were either used immediately or stored at −70° C. Cells were washed and lysed with 1 ml lysis buffer (50 mM Tris pH 7.5, 150 mM NaCl, 1% NP-40 0.1% SDS, 0.5% Na-Deoxycholate and complete EDTA-free protease inhibitor cocktail) was added to the cells and allowed to incubate on ice for 15 min. The lysate was centrifuged at 10,000 rpm for 20 min at 4° C., the supernatant recovered, and the protein extract was either used immediately or stored at −70° C. Equal amounts of protein (20 μg) were loaded under reducing conditions and separated by 10% SDS PAGE. The gel was transferred to nitrocellulose and immunoblotted with mouse monoclonal anti-vimentin antibody V9 (Research Genetics, Inc), goat anti-vimentin antibody (Chemicon International, Calif.) or goat anti-actin (Santa-Cruz Biotechnology, Inc) followed by a horseradish peroxidase-conjugated appropriate secondary antibody. Chemiluminescent signal was detected using the Super Signal West Pico system (Pierce Chemical Co, Rockford, Ill.).

[2] = tested on: phosphorylated vimentin in MDM; test: Immunoprecipitation with anti-phospho-(Ser/Thr) antibody, vimentin detected by V9; settings: 7 day MDM in 10% serum; okadaic acid 100 nM or GÖ 6983 250 nM, 2 h; FIG. 4d
vimentin in 12 day MDM = test: In vivo phosphorylation of vimentin, [32P] orthophosphate incorporation in 12 day MDM; settings: GÖ 6983 250 nM or OA 100 nM during [32P] labeling, Western blot of same membrane, FIG. 4e
Method: 12 day MDM (1.5×10^6) were rinsed three times with phosphate-free RPMI medium (Gibco-BRL, Grand Island, N.Y.). Cells were incubated in 5 ml of phosphate-free RPMI media and allowed to equilibrate at 37 ° C. in a 6 well plate for 2 h. The media was replaced with 1 ml/well of phosphate-free RPMI media with 10% dialysed human serum and 0.166 mCi of [^32P] orthophosphoric acid (Amersham Pharmacia Biotech) for 6 h of incubation. In addition to the control, some wells were treated with GÖ 6983 [250 nM] or OA [100 nM]. Following treatment, medium was removed and replaced by serum free medium for 18 h. Supernatant and cells were prepared for immunoprecipitation as described above (Metabolic Labeling section). Phosphorylated vimentin protein was immunoprecipitated as above, and the samples were separated by 10% SDS-PAGE electrophoresis under reducing conditions. Proteins were transferred to nitrocellulose and subjected to autoradiography for 4 h then immunoblotted with mouse monoclonal anti-vimentin antibody (Research Genetics, Inc.), stripped and re-probed with goat polyclonal anti-vimentin antibody (Chemicon International, Calif.), followed by horseradish peroxidase-conjugated goat anti-mouse or rabbit anti-goat secondary antibodies. Chemiluminescent signal was detected using the Super Signal West Pico system (Pierce Chemical Co, Rockford, Ill.).

[3] = tested on: secretion of vimentin from MDM; test: Vimentin secretion by MDM, Western blot of supernatants
[4] = tested on: vimentin proteolysis in MDM; test: Vimentin proteolytic products in MDM, Western blot with V9; settings: MDM treated with E-64 [100 µM], 12 h; FIG. 3e
Method: as §1, with “The lysate was centrifuged at 10,000 rpm for 20 min at 4° C., the supernatant recovered, and the protein extract was either used immediately or stored at −70° C. Equal amounts of protein (20 μg) were loaded under reducing conditions and separated by 10% SDS PAGE. The gel was transferred to nitrocellulose and immunoblotted with mouse monoclonal anti-vimentin antibody V9 (Research Genetics, Inc), goat anti-vimentin antibody (Chemicon International, Calif.) or goat anti-actin (Santa-Cruz Biotechnology, Inc) followed by a horseradish peroxidase-conjugated appropriate secondary antibody.” left out

For `C=C1[C@@H](O)[C@@H]2O[C@]3(CC[C@H](/C=C/[C@@H](C)[C@@H]4CC(C)=C[C@@]5(O[C@H](C[C@@](C)(O)C(=O)O)CC[C@H]5O)O4)O3)CC[C@H]2O[C@@H]1[C@@H](O)C[C@H](C)[C@H]1O[C@@]2(CCCCO2)CC[C@H]1C` [OA, okadaic acid], the extracellular vimentin levels ([1]; 10 day MDM in 40% serum, okadaic acid 100 nM, 2 h, FIG. 4a) was “led to an increase in extracellular vimentin levels”, the “amount of phosphorylated vimentin in cells (cytoplasm) and supernatant” value [2] was “increase in phosphorylated vimentin in the supernatants but not in the cells” and the “secretion of vimentin (62 kD and 52 kD forms)” value (vimentin in 12 day MDM) was “preferentially enhances secretion of the 52 kD form”. The “increase in vimentin secretion” value ([3]; 7 day MDM in 10% serum, okadaic acid 100 nM, 2 h, FIG. 4b) was over 10 fold.

In the case of `CC[C@@]1([C@@H]2O[C@@H]([C@H]3O[C@@](O)(CO)[C@H](C)C[C@@H]3C)C[C@@H]2C)CC[C@H]([C@]2(C)CC[C@]3(C[C@H](O)[C@@H](C)[C@@H]([C@@H](C)[C@@H](OC)[C@H](C)C(=O)O)O3)O2)O1` [Monensin, monensin], the “secretion of vimentin from the mature MDM” value [1] is reported as “eliminate secretion of vimentin”.

tunicamycin was tested, and the “secretion of vimentin from the mature MDM” value [1] was “eliminate secretion of vimentin”.

With `CC(C)C[C@H](NC(=O)[C@H]1O[C@@H]1C(=O)O)C(=O)NCCCCN=C(N)N` [E-64] the “vimentin proteolytic products, intracellularly and in the supernatant” value [4] was “marked decrease”.

In the case of TNF-α, the “induction of secretion of vimentin” value ([3]; 1 day human monocytes in 10% human serum, TNF-α 0.5, 1 or 5 ng ml−1, 12 h, densitometry, FIGS. 5b, 5c) is reported as “up to 120 fold”.

In the case of `COc1ccc2c(c1)c(C1=C(c3c[nH]c4ccccc34)C(=O)NC1=O)cn2CCCN(C)C` [GÖ6983], the “secretion of vimentin in the presence of TNF-α” value ([1]; 40% serum treated MDM, GÖ6983 followed by TNF-α) is reported as “not blocked”, the “vimentin secretion (vimentin in the supernatant)” value [1] is reported as “almost completely blocked; also recorded: significantly blocked” and the “amount of actin detected in the supernatants” value ([1]; eleven day MDM with or without GÖ6983, FIG. 3c) is reported as “does not modify the amount of actin”. For the same molecule, the “amount of phosphorylated vimentin in cells (cytoplasm) and supernatant” value [2] was “markedly decreased the amount of phosphorylated vimentin in the cytoplasm as well as in the supernatant”, the “secretion of vimentin (62 kD and 52 kD forms)” value (vimentin in 12 day MDM) was “eliminated essentially all the secretion of vimentin” and the OA-enhanced vimentin secretion ([3]; 7 day MDM in 10% serum, preincubated with GÖ 6983 250 nM 2 h prior to OA 100 nM, FIG. 4b) was “partially decreased”.

For `C[S+]([O-])c1ccc(-c2nc(-c3ccncc3)c(-c3ccc(F)cc3)[nH]2)cc1` (stereo not shown) [SB203580], the “vimentin secretion (vimentin in the supernatant)” value [1] was “did not block secretion”.

B1: IL-10: anti-inflammatory cytokine, a potent inhibitor of activated macrophages (protein, UniProt P22301 19-178, looked up)
Interleukin-10: SPGQGTQSENSCTHFPGNLPNMLRDLRDAFSRVKTFFQMKDQLDNLLLKESLLEDFKGYLGCQALSEMIQFYLEEVMPQAENQDPDIKAHVNSLGENLKTLRLRLRRCHRFLPCENKSKAVEQVKNAFNKLQEKGIYKAMSEFDIFINYIEAYMTMKIRN
For B1, the secretion of vimentin ([1]; MDM in 40% human serum, IL-10 10, 50 or 500 ng ml−1, 12 h, FIG. 5a) was “markedly decreased the secretion of vimentin”.
